The results in this text go back to PubChem BioAssay AID292 (DTP/NCI, 2004).

Where “and” joins values, the source holds several entries; their conditions need not be identical. Identical values can stand only once. Toxic doses and inconclusive results are not listed.

The subject of the test is B6C3F1 mice, ip Sarcoma M5076, median survival T/C. Nature of the test: NCI In Vivo Anticancer Drug Screen. Data for tumor model Sarcoma M5076 (intraperitoneal) in B6C3F1 mice. The conditions noted are these: endpoint: median survival time, higher = longer survival. Summed up:
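Mice carrying the transplanted tumour received compound treatment. Survival was recorded, and each value is the treated-group measurement divided by that of the vehicle-dosed control group.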

[1] abbreviates: dose: 50.0 mg/kg/injection, schedule: Q04DX004 (ip), vehicle: saline with Tween-80.
Where [2] appears, read: dose: 100.0 mg/kg/injection, schedule: Q04DX004 (ip), vehicle: saline with Tween-80.
The mark [3] stands for this setting: dose: 200.0 mg/kg/injection, schedule: Q04DX004 (ip), vehicle: saline with Tween-80.
[4] abbreviates: dose: 400.0 mg/kg/injection, schedule: Q04DX004 (ip), vehicle: saline with Tween-80.
The mark [5] stands for this setting: dose: 12.5 mg/kg/injection, schedule: Q04DX004 (ip), vehicle: saline with Tween-80.
Setting [6] is: dose: 25.0 mg/kg/injection, schedule: Q04DX004 (ip), vehicle: saline with Tween-80.
Setting [7] is: dose: 50.0 mg/kg/injection, schedule: Q04DX004 (ip), vehicle: Klucel (hydroxypropylcellulose) (HPC).
Where [8] appears, read: dose: 100.0 mg/kg/injection, schedule: Q04DX004 (ip), vehicle: Klucel (hydroxypropylcellulose) (HPC).
The mark [9] stands for this setting: dose: 200.0 mg/kg/injection, schedule: Q04DX004 (ip), vehicle: Klucel (hydroxypropylcellulose) (HPC).
Setting [10] is: dose: 400.0 mg/kg/injection, schedule: Q04DX004 (ip), vehicle: Klucel (hydroxypropylcellulose) (HPC).

On to `CCN(CC)CC(=O)O[C@]1(CC)C(=O)OCc2c1cc1n(c2=O)Cc2cc3ccccc3nc2-1`, for which the T/C (dose: 2.0 mg/kg/injection, schedule: Q04DX004 (ip), vehicle: water) is 106 % of control and 110 % of control; the T/C (dose: 4.0 mg/kg/injection, schedule: Q04DX004 (ip), vehicle: water) is 107 % of control and 108 % of control; the T/C (dose: 8.0 mg/kg/injection, schedule: Q04DX004 (ip), vehicle: water) was 120 % of control and 124 % of control.
On to `CN=NN(C)C(=O)NC`, for which the T/C reads like this: (dose: 25.0 mg/kg/injection, schedule: Q04DX004 (ip), vehicle: saline) 158 % of control; (dose: 30.0 mg/kg/injection, schedule: Q04DX004 (ip), vehicle: saline) 160 % of control; (dose: 50.0 mg/kg/injection, schedule: Q04DX004 (ip), vehicle: saline) 151 % of control and 152 % of control and 177 % of control; (dose: 83.0 mg/kg/injection, schedule: Q04DX004 (ip), vehicle: saline) 160 % of control and 162 % of control.
Consider `N=C(N)c1nn(C2OC(CO)C(O)C2O)c2nc[nH]c(=O)c12` (stereo unspecified), for which the T/C by setting is: (dose: 6.25 mg/kg/injection, schedule: Q04DX004 (ip), vehicle: Klucel + Tween-80) 123 % of control; (dose: 12.5 mg/kg/injection, schedule: Q04DX004 (ip), vehicle: Klucel + Tween-80) 109 % of control; (dose: 18.0 mg/kg/injection, schedule: Q04DX004 (ip), vehicle: other) 106 % of control; (dose: 22.0 mg/kg/injection, schedule: Q04DX004 (ip), vehicle: Klucel + Tween-80) 112 % of control; (dose: 30.0 mg/kg/injection, schedule: Q04DX004 (ip), vehicle: other) 107 % of control; (dose: 36.0 mg/kg/injection, schedule: Q04DX004 (ip), vehicle: Klucel + Tween-80) 120 % of control. Further, the T/C runs as follows: (dose: 50.0 mg/kg/injection, schedule: Q04DX004 (ip), vehicle: other) 105 % of control; (dose: 60.0 mg/kg/injection, schedule: Q04DX004 (ip), vehicle: Klucel + Tween-80) 117 % of control; (dose: 83.33 mg/kg/injection, schedule: Q04DX004 (ip), vehicle: other) 105 % of control; (dose: 101.0 mg/kg/injection, schedule: Q04DX004 (ip), vehicle: Klucel + Tween-80) 117 % of control.
Take `Cc1[nH]c(=O)[nH]c(=O)c1C=O`: the T/C by setting is: under setting [1], 100 % of control; under setting [2], 101 % of control; under setting [3], 98 % of control; under setting [4], 96 % of control.
In the case of `C=Cc1cc(OC)c2c(c1)c(=O)oc1c2cc(OC)c2c(O)ccc(C3OC(C)C(O)C(C)(O)C3O)c21` (stereo unspecified), the T/C runs as follows: (dose: 10.0 mg/kg/injection, schedule: Q04DX004 (ip), vehicle: DMSO) 114 % of control; (dose: 20.0 mg/kg/injection, schedule: Q04DX004 (ip), vehicle: DMSO) 110 % of control; (dose: 40.0 mg/kg/injection, schedule: Q04DX004 (ip), vehicle: DMSO) 88 % of control; (dose: 80.0 mg/kg/injection, schedule: Q04DX004 (ip), vehicle: DMSO) 118 % of control; (dose: 160.0 mg/kg/injection, schedule: Q04DX004 (ip), vehicle: DMSO) 100 % of control.
`COc1ncc(Br)cc1C(=O)NCCc1ccc(S(=O)(=O)NC(=O)NC2CCCCC2)cc1`: the T/C was 100 % of control under setting [5], 102 % of control under setting [6] and 100 % of control under setting [1].
Take `Cc1ccc(/C=C2/N=C([Se])N(C)C2=O)cc1`: the T/C by setting is: (dose: 37.5 mg/kg/injection, schedule: Q04DX004 (ip), vehicle: saline with Tween-80) 124 % of control; (dose: 75.0 mg/kg/injection, schedule: Q04DX004 (ip), vehicle: saline with Tween-80) 98 % of control; (dose: 150.0 mg/kg/injection, schedule: Q04DX004 (ip), vehicle: saline with Tween-80) 89 % of control.
For `O=[n+]1c2c(n([O-])c3ccccc31)CCC2`, the T/C reads like this: (dose: 21.9 mg/kg/injection, schedule: Q04DX004 (ip), vehicle: saline with Tween-80) 103 % of control; (dose: 43.75 mg/kg/injection, schedule: Q04DX004 (ip), vehicle: saline with Tween-80) 102 % of control; (dose: 87.5 mg/kg/injection, schedule: Q04DX004 (ip), vehicle: saline with Tween-80) 104 % of control; (dose: 175.0 mg/kg/injection, schedule: Q04DX004 (ip), vehicle: saline with Tween-80) 107 % of control and 108 % of control; (dose: 350.0 mg/kg/injection, schedule: Q04DX004 (ip), vehicle: saline with Tween-80) 109 % of control and 110 % of control.
As for `O=S1ON=C(C2CCC(C3=NOS(=O)O3)C2)O1` (stereo unspecified), the T/C by setting is: under setting [6], 108 % of control; under setting [1], 102 % of control; under setting [2], 103 % of control; under setting [3], 87 % of control.
In the case of `Nc1nc(=S)c2[nH]cnc2[nH]1`, the T/C was 163 % of control (dose: 3.0 mg/kg/injection, schedule: Q01DX004 (ip), vehicle: Klucel (hydroxypropylcellulose) (HPC)); 178 % of control (dose: 6.0 mg/kg/injection, schedule: Q01DX004 (ip), vehicle: Klucel (hydroxypropylcellulose) (HPC)); 182 % of control (dose: 12.0 mg/kg/injection, schedule: Q01DX004 (ip), vehicle: Klucel (hydroxypropylcellulose) (HPC)); 175 % of control (dose: 24.0 mg/kg/injection, schedule: Q04DX004 (ip), vehicle: Klucel (hydroxypropylcellulose) (HPC)).
Consider `Oc1c(Cl)cc(Cl)cc1C1Nc2ccccc2-n2cccc21` (stereo unspecified), for which the T/C is 90 % of control under setting [5]; 88 % of control under setting [6]; 86 % of control and 92 % of control under setting [1]; 87 % of control under setting [4]; 91 % of control (dose: 800.0 mg/kg/injection, schedule: Q04DX004 (ip), vehicle: saline with Tween-80).
Take `Cc1c(N)nc([C@H](CC(N)=O)NC[C@H](N)C(N)=O)nc1C(=O)N[C@H](C(=O)N[C@H](C)[C@@H](O)[C@H](C)C(=O)N[C@H](C(=O)NCCc1nc(-c2nc(C(=O)NCCC[S+](C)C)cs2)cs1)[C@@H](C)O)C(OC1OC(CO)C(O)C(O)C1OC1OC(CO)C(O)C(OC(N)=O)C1O)c1cnc[nH]1` (stereo partly specified): the T/C (dose: 5.0 mg/kg/injection, schedule: Q04DX004 (ip), vehicle: saline) is 94 % of control; the T/C (dose: 10.0 mg/kg/injection, schedule: Q04DX004 (ip), vehicle: saline) is 94 % of control; the T/C (dose: 20.0 mg/kg/injection, schedule: Q04DX004 (ip), vehicle: saline) was 109 % of control; the T/C (dose: 40.0 mg/kg/injection, schedule: Q04DX004 (ip), vehicle: saline) is 106 % of control.
With `CN1C(=O)C(=O)N(Cc2ccc(CN3C(=O)C(=O)N(C)C3=O)cc2)C1=O`, the T/C is, setting by setting: under setting [7], 98 % of control; under setting [8], 94 % of control; under setting [9], 115 % of control; under setting [10], 92 % of control.
With `CC(C)(C)c1cc(C2C(C#N)C(=O)NC(=O)C2C#N)cc(C(C)(C)C)c1O` (stereo unspecified), the T/C under setting [7] is 88 % of control; the T/C under setting [8] was 97 % of control; the T/C under setting [9] is 93 % of control; the T/C under setting [10] is 95 % of control; the T/C (dose: 800.0 mg/kg/injection, schedule: Q04DX004 (ip), vehicle: Klucel (hydroxypropylcellulose) (HPC)) was 97 % of control.
Take `CCOC(=O)C(C(=O)OCC)=C(N)C(Cl)(Cl)Cl`: the T/C is 107 % of control (dose: 25.0 mg/kg/injection, schedule: Q04DX004 (ip), vehicle: Klucel (hydroxypropylcellulose) (HPC)); 103 % of control under setting [7]; 101 % of control under setting [8]; 103 % of control under setting [9]; 96 % of control under setting [10].
Take `O=C(O)[C@H](Cc1ccccc1)N1C(=O)c2ccccc2C1=O`: the T/C (dose: 62.5 mg/kg/injection, schedule: Q04DX004 (ip), vehicle: DMSO) is 92 % of control; the T/C (dose: 125.0 mg/kg/injection, schedule: Q04DX004 (ip), vehicle: DMSO) is 110 % of control; the T/C (dose: 250.0 mg/kg/injection, schedule: Q04DX004 (ip), vehicle: DMSO) is 100 % of control.
